The NIST ThermoML archive (doi:10.1021/je700152c)
± gives the expanded uncertainty stated by the source.

Assay: molar heat capacity at constant pressure
Conditions: 101.33 kPa

CCCCn1cc[n+](C)c1.Cc1ccc(S(=O)(=O)[O-])cc1 [1-butyl-3-methylimidazolium tosylate]
molar heat capacity at constant pressure (5 K, Crystal 2): 2.54 ± 0.13 J/K/mol
molar heat capacity at constant pressure (10 K, Crystal 2): 11.91 ± 0.42 J/K/mol
molar heat capacity at constant pressure (15 K, Crystal 2): 24.31 ± 0.72 J/K/mol
molar heat capacity at constant pressure (20 K, Crystal 2): 37.67 ± 0.95 J/K/mol
molar heat capacity at constant pressure (25 K, Crystal 2): 51.27 ± 1.1 J/K/mol
molar heat capacity at constant pressure (30 K, Crystal 2): 64.46 ± 0.85 J/K/mol
molar heat capacity at constant pressure (35 K, Crystal 2): 76.73 ± 0.96 J/K/mol
molar heat capacity at constant pressure (40 K, Crystal 2): 87.97 ± 1.1 J/K/mol
molar heat capacity at constant pressure (45 K, Crystal 2): 98.44 ± 1.2 J/K/mol
molar heat capacity at constant pressure (50 K, Crystal 2): 108.3 ± 1.2 J/K/mol
molar heat capacity at constant pressure (60 K, Crystal 2): 125.9 ± 1.5 J/K/mol
molar heat capacity at constant pressure (70 K, Crystal 2): 141.6 ± 1.6 J/K/mol
molar heat capacity at constant pressure (80 K, Crystal 2): 156 ± 1.7 J/K/mol
molar heat capacity at constant pressure (90 K, Crystal 2): 169.3 ± 1.7 J/K/mol
molar heat capacity at constant pressure (100 K, Crystal 2): 181.9 ± 1.8 J/K/mol
molar heat capacity at constant pressure (105 K, Crystal 2): 188.1 ± 1.9 J/K/mol
molar heat capacity at constant pressure (110 K, Crystal 2): 194.1 ± 1.9 J/K/mol
molar heat capacity at constant pressure (120 K, Crystal 2): 206 ± 2.1 J/K/mol
molar heat capacity at constant pressure (130 K, Crystal 2): 218 ± 2.2 J/K/mol
molar heat capacity at constant pressure (140 K, Crystal 2): 230 ± 2.2 J/K/mol
molar heat capacity at constant pressure (150 K, Crystal 2): 241.9 ± 2.3 J/K/mol
molar heat capacity at constant pressure (152.77 K, Crystal 1): 238.4 ± 2.3 J/K/mol
molar heat capacity at constant pressure (152.77 K, Crystal 2): 245.2 ± 2.3 J/K/mol
molar heat capacity at constant pressure (160 K, Crystal 1): 246.2 ± 2.4 J/K/mol
molar heat capacity at constant pressure (170 K, Crystal 1): 257 ± 2.5 J/K/mol
molar heat capacity at constant pressure (180 K, Crystal 1): 267.8 ± 2.6 J/K/mol
molar heat capacity at constant pressure (190 K, Crystal 1): 278.8 ± 2.7 J/K/mol
molar heat capacity at constant pressure (200 K, Crystal 1): 289.9 ± 2.7 J/K/mol
molar heat capacity at constant pressure (210 K, Crystal 1): 301.5 ± 2.8 J/K/mol
molar heat capacity at constant pressure (220 K, Crystal 1): 313.3 ± 2.9 J/K/mol
molar heat capacity at constant pressure (230 K, Crystal 1): 335.4 ± 3.1 J/K/mol
molar heat capacity at constant pressure (240 K, Crystal 1): 348.3 ± 3.2 J/K/mol
molar heat capacity at constant pressure (250 K, Crystal 1): 359.9 ± 3.2 J/K/mol
molar heat capacity at constant pressure (260 K, Crystal 1): 371.2 ± 3.4 J/K/mol
molar heat capacity at constant pressure (270 K, Crystal 1): 382.3 ± 3.5 J/K/mol
molar heat capacity at constant pressure (280 K, Crystal 1): 393.3 ± 3.6 J/K/mol
molar heat capacity at constant pressure (290 K, Crystal 1): 404.1 ± 3.7 J/K/mol
molar heat capacity at constant pressure (298.15 K, Crystal 1): 412.7 ± 3.7 J/K/mol
molar heat capacity at constant pressure (300 K, Crystal 1): 414.6 ± 3.7 J/K/mol
molar heat capacity at constant pressure (310 K, Crystal 1): 425 ± 3.8 J/K/mol
molar heat capacity at constant pressure (320 K, Crystal 1): 435.3 ± 3.9 J/K/mol
molar heat capacity at constant pressure (330 K, Crystal 1): 445.3 ± 4 J/K/mol
molar heat capacity at constant pressure (340 K, Crystal 1): 455.1 ± 4.1 J/K/mol
molar heat capacity at constant pressure (343.89 K, Crystal 1): 458.7 ± 4.1 J/K/mol
molar heat capacity at constant pressure (343.89 K, Liquid): 543.4 ± 4.7 J/K/mol
molar heat capacity at constant pressure (350 K, Liquid): 548.4 ± 4.8 J/K/mol
molar heat capacity at constant pressure (360 K, Liquid): 556 ± 4.8 J/K/mol
molar heat capacity at constant pressure (370 K, Liquid): 563.1 ± 4.9 J/K/mol
molar heat capacity at constant pressure (380 K, Liquid): 569.8 ± 5 J/K/mol
